# Laboratory results published in patent US20020159981A1, “Methods of controlling proliferation and differentiation of stem and progenitor cells” (Gamida-Cell Ltd., priority 1999, published 2002).
# Tests used:
# [1] = test system: Cord blood-derived CD34 cells; assay: Long-term liquid culture of CD34 cells: proliferation, CFUc, differentiation status; type: cell-based, human; conditions: for cell proliferation and generation of CFUc in long-term cultures: long-term cultures (FIGS. 21, 22)
# Method: (§1) Culture procedures: For the expansion of progenitor cells, CD34^+ enriched fractions or unseparated mononuclear cells were seeded at about 1-3×10^4 cells/ml in either alpha minimal essential medium containing 10% preselected fetal calf serum (FCS) (both from GIBCO, Grand Island, N.Y.), or serum-free medium (Progenitor-34 medium, Life Technologies, Grand Island, N.Y.). The media were supplemented with a mixture of growth factors and transition metal chelators. The cultures were incubated at 37° C. in an atmosphere of 5% CO2 in air with extra humidity. Half of the medium was changed weekly with fresh medium containing all the supplements.
# (§2) Cloning potential evaluations: The cloning potential of cells developed in the liquid culture was assayed, at different intervals, in semi-solid medium. The cells were washed and seeded in 35 mm dishes in methylcellulose containing alpha medium supplemented with recombinant growth factors (SCF, G-CSF, GM-CSF and EPO). Following 2 weeks incubation, the cultures were scored with an inverted microscope. Colonies were classified as blast, mixed, erythroid, myeloid, and megakaryocytic, according to their cellular composition.
# Morphological assessment: In order to characterize the resulting culture populations, aliquots of cells were deposited on a glass slide (cytocentrifuge, Shandon, Runcorn, UK), fixed and stained in May-Grunwald Giemsa. Other aliquots were stained by benzidine for intracellular hemoglobin.
# TEPA effects on proliferation and clonability of long-term CD34^+ cultures: Long-term cultures were maintained for 3-5 weeks by weekly demi-depopulation (one half of the culture volume was removed and replaced by fresh medium and cytokines).
# CD34^+ cells derived from human neonatal cord blood were purified by immunomagnetic method and then cultured in liquid medium supplemented with cytokines either with or without transition metal chelators. At weekly intervals, the cultures were demi-depopulated by removing half of the culture content (supernatant and cells) and replacing it with fresh medium, cytokines and the chelators. At the indicated weeks the cellular content of the cultures were quantified for total cells (by a manual microscopic/hemocytometric method), for CD34^+ cells (by immuno-flow cytometry) and for clonogenic cells (by cloning the cells in cytokine-supplemented semi-solid medium). The cultures were initiated with 1×10^4 cells, 50-80% of which were CD34^+ and 25-50% of which were CFUc. The results presented in FIGS. 11 to 24 were calculated per 1×10^4 initiating cells (the numbers were multiplied by the dilution factors).
# [2] = test system: Cord blood-derived CD34 cells; assay: Short-term liquid culture of CD34 cells: cell number, CD34 cells, colony forming cells; type: cell-based, human; conditions: for effects of transition metal chelators on CD34^+ cells: 10 μM, day 7 (FIG. 7); for reversal of TEPA activities by supplemented ions: TEPA-treated cultures, short to medium term (FIGS. 8, 9)
# Method: The interphase layer of mononuclear cells were collected, washed three times with Ca/Mg free phosphate buffered saline containing 1% bovine serum albumin (BSA). The cells were incubated for 30 min. at 4° C. with murine monoclonal anti CD34 antibody (0.5 μg/10^6 mononuclear cells) and thereafter isolated using the miniMACS apparatus (Miltenyi-Biotec, Bergisch, Gladbach, Germany) according to the manufacturer's protocol.
# as §1, §2
# Immunofluorescence staining: At different intervals, cells from the liquid cultures were assayed for CD34 antigen. Aliquots were harvested, washed and incubated on ice with FITC-labeled anti CD45 monoclonal antibody and either PE-labeled anti CD34 (HPCA-2) monoclonal antibody or PE-labeled control mouse Ig. After incubation, red cells were lysed with lysing solution, while the remaining cells were washed and analyzed by flow cytometer.
# Flow cytometry: Cells were analyzed and sorted using FACStarPlus flow cytometer (Becton-Dickinson, Immunofluorometry systems, Mountain View, Calif.). Cells were passed at a rate of 1,000 cells/second through a […] nozzle, using saline as the sheath fluid. A 488 nm argon laser beam at 250 mW served as the light source for excitation. […] The PMTs was set at the appropriate voltage. Logarithmic amplification was applied for measurements of fluorescence and linear amplification—for forward light scatter. At least 10^4 cells were analyzed.
# Cord blood-derived CD34 cells were plated in liquid culture in the presence of: FL—50 ng/ml, SCF—50 ng/ml, IL-6—50 ng/ml, with or without IL-3—20 ng/ml, with or without TEPA—10 μM. On day 7, the percentage of CD34 cells and the total cell number were determined. Aliquots equivalent to 1×10^3 initiating cells were assayed on days 0 and 7 for colony forming cells (CFU) by cloning in semi-solid medium. CFU expansion represents the ratio of CFU present on day 7 to CFU present on day 0.
# [3] = test system: cord blood-derived CD34^+ cells; assay: Copper-chelating peptides on proliferation and clonability in CD34 cell cultures; type: cell-based; conditions: for decrease of cell number / decrease of clonogenic potential (CFUc): peptides 10 μM, cytokines 10 ng/ml each; for decrease of cell number: after 7 weeks (FIG. 25a); for decrease of clonogenic potential (CFUc): after 7 weeks (FIG. 25b); for effect on cell differentiation: second group of Copper chelators
# Method: Culture procedures: For the expansion of progenitor cells, CD34^+ enriched fractions were seeded at 1×10^4 cells/ml in alpha minimal essential medium containing 10% preselected fetal calf serum (FCS) (both from GIBCO, Grand Island, N.Y.). The medium was supplemented with a mixture of growth factors and Copper chelators. The cultures were incubated at 37° C. in an atmosphere of 5% CO2 in air with extra humidity. Half of the medium was changed weekly with fresh medium containing all the supplements.
# The cloning potential of the cultured cells was assayed in semi-solid medium. The cells were washed and seeded in 35 mm dishes in methylcellulose containing alpha medium supplemented with 30% FCS and further with recombinant growth factors (stem cell factor (SCF), G-CSF, GM-CSF and erythropoietin (EPO)). Following two week incubation, the cultures were scored with an inverted microscope. Colonies were classified as blast, mixed, erythroid, myeloid, and megakaryocytic, according to their cellular composition.
# The effect of Copper-chelating peptides on proliferation and clonability in CD34 cell cultures: Cultures were initiated with 10^4 cord blood-derived CD34^+ cells by plating purified cells in liquid medium in the presence of SCF, FLT3 and IL-6 (50 ng/ml each) and the Copper-binding peptides, Gly-Gly-His (GGH) or Gly-His-Lys (GHL) (10 μM each), or the late-acting cytokines G-CSF and GM-CSF (10 ng/ml each). At weekly intervals, the cultures were demi-depopulated and supplemented with fresh medium, cytokines and the peptides. After 7 weeks, cells were counted and assayed for CFUc.
# [4] = test system: Murine erythroleukemia cells (MEL); assay: HMBA-induced differentiation and growth of erythroleukemic cells; type: cell-based, mouse; conditions: day 3 (Table 2)
# Method: Mouse erythroleukemic cells (MEL): MEL cells are erythroblast like cells. Following treatment with several chemicals (differentiation inducers) the cells undergo erythroid differentiation and accumulate hemoglobin. […] At day 3 of the culture, the total number of cells and the percentage of hemoglobin-containing cells were determined (Table 2).
# On day 3, total cell number and hemoglobin containing (benzidine positive) cells were determined.
# HL-60 cells = assay: Copper determination in chelator treated cells (atomic absorption); type: cell-based, human
# Method: Copper Determination: Cells were harvested by centrifugation at 1000×g for 5 minutes. The cell pellet was washed three times by re-suspending the cells in PBS (Ca^++ and Mg^++ free) and centrifugation at 1000×g. An aliquot containing 2×10^6 cells was then transferred into a metal-free Eppendorf tube and the cells were recovered by centrifugation at 1000×g. The cell pellet was re-suspended in 0.03 M ultra-pure nitric acid to give a concentration of 1×10^7 cells/ml. The cells were homogenized with a high shear mixer (polytron, Kinematica, Switzerland) for 1 minutes to disrupt the cell and release intracellular copper content. Cell samples were vortexed before transferring to a vial autosampler and analyzed in duplicate by a Perkin Elmer graphite furnace atomic absorption spectrophotometer at a wavelength of 324.7 nm. The samples were analyzed against copper standard solution prepared from a commercial stock solution that was diluted with 0.03 M ultra pure nitric acid.
# [5] = polyamine chelating agents, weeks 3, 4, 6, 7 (FIGS. 21a-b)
molecule,measurement,setting,value
"O=S(=O)([O-])[O-].[Zn+2] [Zinc, Zinc-sulfate]",effect of Zinc in long term cultures,"[1]; FIGS. 23a-b, to a smaller extent than the chelators",mimicked the effect of the chelating agents
same,clonability of the cultures,[2]; Zinc alone (FIG. 10),expand the clonability
Gly-His-Lys (GGH) [GHL],activity on differentiation of CD34^+ cells,[1],stimulate differentiation
same,decrease of cell number,[3],25%
same,decrease of clonogenic potential (CFUc),[3],78%
same,effect on cell differentiation,[3],accelerate cell differentiation
"C1CNCCNCCNCCN1 [1,4,7,10-Tetraaza cyclododecane]",activity on differentiation of CD34^+ cells,[1],stimulate differentiation
"C[C@H](CS)C(=O)N1CCC[C@H]1C(=O)O [Captopril, captopril, reference compound]",effects of transition metal chelators on CD34^+ cells,[2],share the same effects on CD34^+ cells as TEPA
same,HMBA-induced differentiation of MEL cells,[4],inhibited
"O=S(=O)([O-])[O-].[Cu+2] [Copper, Copper-sulfate]",reversal of TEPA activities by supplemented ions,[2],reversed
"O=[Se]([O-])[O-].[Na+].[Na+] [selenium, sodium selenite]",reversal of TEPA activities by supplemented ions,[2],did not
"CC(C)(S)[C@@H](N)C(=O)O [Penicilamine, penicilamine, reference compound]",cell proliferation and generation of CFUc in long-term cultures,[1],sustained cell proliferation and expansion of clonogenic cells
same,concentrations with optimal activity,"[1]; transition metal chelating agents, weeks 4, 5, 7 (FIGS. 22a-b)",5 µM
same,effects of transition metal chelators on CD34^+ cells,[2],share the same effects on CD34^+ cells as TEPA
Gly-Gly-His (GHK) [GGH],activity on differentiation of CD34^+ cells,[1],stimulate differentiation
same,decrease of cell number,[3],10%
same,decrease of clonogenic potential (CFUc),[3],80%
same,effect on cell differentiation,[3],accelerate cell differentiation
"NCCNCCNCCN [Triethylene tetramine, triethylene-tetramine]",cell proliferation and generation of CFUc in long-term cultures,[1],support continuous cell proliferation and long-term generation of CFUc and to delay cell differentiation
same,concentrations with optimal activity,[1]; [5],20 µM
"O=C1CC(=O)NCCNCCCNCCN1 [1,4,8,11-Tetraaza cyclotetradecane-5,7-dione]",Average Intracellular ppb Cu,"HL-60 cells; 100 μM, control 49 + − 18",274 ppb
iron,reversal of TEPA activities by supplemented ions,[2],did not
"NCCN [EDA, ethylenediamine]",cell proliferation and generation of CFUc in long-term cultures,[1],support continuous cell proliferation and long-term generation of CFUc and to delay cell differentiation
same,concentrations with optimal activity,[1]; [5],20 µM
"C1CNCCNCCN1.Cl.Cl.Cl [1,4,7-Triazacyclononane trihydrochioride]",Average Intracellular Cu (% of control),HL-60 cells; 20 μM,32%
same,Average Intracellular Cu (% of control),HL-60 cells; 100 μM,36%
